According to US9187471B2, “Pyrido [4,3-b] indole and pyrido [3,4-b] indole derivatives and methods of use” (Medivation Technologies, Inc., priority 2010, dated 2015):

Columns and labels:
[1] = molecular target: T1, human recombinant adrenergic α2A receptor (Homo sapiens, UniProt P08913); test: Adrenergic α2A radioligand binding ([3H]MK-912); conditions: read-out: Adrenergic (0.1 μM) a2A, percent inhibition of specific binding; compound at 0.1 μM; 1 nM [3H]MK-912
T1 construct: expressed in transfected cells; host or cells: insect Sf9 cells
T1 sequence (P08913 1-465): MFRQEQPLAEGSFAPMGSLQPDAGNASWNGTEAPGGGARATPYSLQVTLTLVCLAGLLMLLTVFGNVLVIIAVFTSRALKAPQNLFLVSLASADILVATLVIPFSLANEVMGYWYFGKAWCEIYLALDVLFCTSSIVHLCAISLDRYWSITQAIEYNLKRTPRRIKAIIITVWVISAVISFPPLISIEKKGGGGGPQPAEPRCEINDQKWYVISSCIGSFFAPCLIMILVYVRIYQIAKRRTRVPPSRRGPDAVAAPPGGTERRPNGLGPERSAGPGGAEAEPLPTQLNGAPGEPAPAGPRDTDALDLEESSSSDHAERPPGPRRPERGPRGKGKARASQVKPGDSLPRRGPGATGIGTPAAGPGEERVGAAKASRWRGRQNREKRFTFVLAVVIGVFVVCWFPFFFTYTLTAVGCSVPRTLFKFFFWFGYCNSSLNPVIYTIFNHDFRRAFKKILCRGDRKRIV
Description: To evaluate in radioligand binding assays the activity of compounds of the invention, human recombinant adrenergic α2A receptor expressed in insect Sf9 cells (Uhlen, S. et al, J. Pharmacol. Exp. Ther. 271:1558, 1994) in a modified Tris-HCl buffer (50 mM Tris-HCl, pH 7.4, 12.5 mM MgCl2, 2 mM EDTA) was used. Compounds of invention were incubated with 1 nM [^3H]MK-912 for 60 min at 25° C. MK-912 is (2S-trans)-1,3,4,5′,6,6′,7,12b-octahydro-1′,3′-dimethyl-spiro[2H-benzofuro[2,3-a]quinolizine-2,4′(1′H)-pyrimidin]-2′(3′H)-one hydrochloride Non-specific binding was estimated in the presence of 10 μM WB-4101 (2-(2,6-Dimethoxyphenoxyethyl)aminomethyl-1,4-benzodioxane hydrochloride). Receptor proteins were filtered and washed, the filters were then counted to determine [^3H]MK-912 specifically bound. […] Compounds of the invention were tested in this biochemical assay and percent inhibition of specific binding was determined.

[2] = molecular target: T2, human recombinant adrenergic α2C receptor (Homo sapiens, UniProt P18825); test: Adrenergic α2C radioligand binding ([3H]MK-912); conditions: read-out: Adrenergic (0.1 μM) a2C, percent inhibition of specific binding; compound at 0.1 μM; 1 nM [3H]MK-912
T2 construct: expressed in transfected cells; host or cells: insect Sf9 cells
T2 sequence (P18825 1-462): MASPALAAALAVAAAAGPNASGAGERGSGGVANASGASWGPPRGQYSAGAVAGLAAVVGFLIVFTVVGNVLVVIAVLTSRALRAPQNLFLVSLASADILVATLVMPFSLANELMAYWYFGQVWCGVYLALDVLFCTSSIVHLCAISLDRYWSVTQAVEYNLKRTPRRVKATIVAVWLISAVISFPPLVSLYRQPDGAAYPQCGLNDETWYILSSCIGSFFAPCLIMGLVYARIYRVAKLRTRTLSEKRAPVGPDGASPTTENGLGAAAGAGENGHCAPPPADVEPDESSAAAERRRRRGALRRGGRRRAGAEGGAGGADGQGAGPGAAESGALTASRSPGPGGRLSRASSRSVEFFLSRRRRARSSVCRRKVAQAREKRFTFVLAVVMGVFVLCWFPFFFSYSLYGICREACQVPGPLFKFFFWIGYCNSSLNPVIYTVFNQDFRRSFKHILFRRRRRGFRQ
In short: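 Membranes from Sf9 cells expressing the human receptor, in 50 mM Tris-HCl pH 7.4 with 12.5 mM MgCl2 and 2 mM EDTA, incubated with compound and 1 nM [3H]MK-912 for 60 min at 25 °C. Non-specific binding defined with 10 μM WB-4101. Filter-bound radioactivity counted; percent inhibition of specific binding reported.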

Adrenergic α1B = molecular target: T3, Adrenergic α1B (Rattus norvegicus, UniProt P15823); test: Adrenergic α1B radioligand binding ([3H]Prazosin); conditions: read-out: Adrenergic (0.1 μM) a1B, percent inhibition of specific binding; compound at 0.1 μM; 0.25 nM [3H]Prazosin; Wistar Rat liver
T3 construct: rat adrenergic α1D receptor obtained from Wistar Rat liver; from tissue; host or cells: Wistar rat liver
T3 sequence (P15823 1-515): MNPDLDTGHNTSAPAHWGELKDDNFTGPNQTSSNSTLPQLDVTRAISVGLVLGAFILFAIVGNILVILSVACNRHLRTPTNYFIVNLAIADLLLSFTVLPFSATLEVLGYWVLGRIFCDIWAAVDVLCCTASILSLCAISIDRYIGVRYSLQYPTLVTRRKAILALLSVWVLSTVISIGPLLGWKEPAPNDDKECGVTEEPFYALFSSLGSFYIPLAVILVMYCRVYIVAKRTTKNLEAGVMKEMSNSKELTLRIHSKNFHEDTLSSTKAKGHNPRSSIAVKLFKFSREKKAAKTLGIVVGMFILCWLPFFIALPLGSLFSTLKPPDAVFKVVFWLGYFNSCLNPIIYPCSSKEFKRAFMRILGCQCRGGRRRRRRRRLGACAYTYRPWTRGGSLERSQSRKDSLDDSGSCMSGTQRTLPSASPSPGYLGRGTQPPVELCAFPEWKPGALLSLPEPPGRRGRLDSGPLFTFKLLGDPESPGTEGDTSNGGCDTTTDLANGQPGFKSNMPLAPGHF
Description: To evaluate in radioligand binding assays the activity of compounds of the invention, rat adrenergic α1D receptor obtained from Wistar Rat liver (Garcia-S'ainz, J. et al, Biochem. Biophys. Res. Commun. 186:760, 1992; Michel, A. et al, Br. J. Pharmacol. 98:883, 1989) in a modified Tris-HCl buffer (50 mM Tris-HCl buffer, pH 7.4, 0.5 mM EDTA) was used. Compounds of the invention were incubated with 0.25 nM [^3H]Prazosin for 60 min at 25° C. Non-specific binding was estimated in the presence of 10 μM phentolamine Receptor proteins were filtered and washed, the filters were then counted to determine [^3H]Prazosin specifically bound. […] Compounds of the invention were tested in this biochemical assay and percent inhibition of specific binding was determined.

Cc1ccc2c(c1)c1c(n2-c2ccccc2-c2cccn2C)CCN(C)C1 [Compound No. 100, 2,8-dimethyl-5-(2-(1-methyl-1H-pyrrol-2-yl)phenyl)-2,3,4,5-tetrahydro-1H-pyrido[4,3-b]indole]
inhibition at 0.1 µM [1]: 95% | inhibition at 0.1 µM [2]: 66%

Cc1ccc2c(c1)c1c(n2-c2ccccc2-c2sccc2C)CCN(C)C1 [Compound No. 102, 2,8-dimethyl-5-(2-(3-methylthiophen-2-yl)phenyl)-2,3,4,5-tetrahydro-1H-pyrido[4,3-b]indole]
inhibition at 0.1 µM [2]: 43%

Cc1ccc2c(c1)c1c(n2-c2ccccc2-c2cccc3[nH]ncc23)CCN(C)C1 [Compound No. 105, 5-(2-(1H-indazol-4-yl)phenyl)-2,8-dimethyl-2,3,4,5-tetrahydro-1H-pyrido[4,3-b]indole]
inhibition at 0.1 µM [2]: 45%

Cc1ccc2c(c1)c1c(n2-c2ccccc2-c2cc3ccccc3s2)CCN(C)C1 [Compound No. 103, 5-(2-(benzo[b]thiophen-2-yl)phenyl)-2,8-dimethyl-2,3,4,5-tetrahydro-1H-pyrido[4,3-b]indole]
inhibition at 0.1 µM [2]: 69%

Cc1ccc2c(c1)c1c(n2-c2ccccc2-c2cncc3ccccc23)CCN(C)C1 [Compound No. 87, 5-(2-(isoquinolin-4-yl)phenyl)-2,8-dimethyl-2,3,4,5-tetrahydro-1H-pyrido[4,3-b]indole]
inhibition at 0.1 µM [2]: -6%

Cc1ccc2c(c1)c1c(n2-c2cnc3ccccc3c2)CCN(C)C1 [Compound No. 88, 2,8-dimethyl-5-quinolin-3-yl-2,3,4,5-tetrahydro-1H-pyrido[4,3-b]indole]
inhibition at 0.1 µM [2]: 4%

Cc1ccc2c(c1)c1c(n2-c2ccccc2-c2cn[nH]c2)CCN(C)C1 [Compound No. 104, 5-(2-(1H-pyrazol-4-yl)phenyl)-2,8-dimethyl-2,3,4,5-tetrahydro-1H-pyrido[4,3-b]indole]
inhibition at 0.1 µM [1]: 14% | inhibition at 0.1 µM (Adrenergic α1B): 9% | inhibition at 0.1 µM [2]: 1%

Cc1ccc2c(c1)c1c(n2-c2ccccc2-c2cnn(C)c2)CCN(C)C1 [Compound No. 86, 2,8-dimethyl-5-(2-(1-methyl-1H-pyrazol-4-yl)phenyl)-2,3,4,5-tetrahydro-1H-pyrido[4,3-b]indole]
inhibition at 0.1 µM [2]: 0%
